In paper PMC5267519, “Evaluation of a Novel Renewable Hepatic Cell Model for Prediction of Clinical CYP3A4 Induction Using a Correlation-Based Relative Induction Score Approach” (Drug Metabolism and Disposition, 2017):
Several values for one entry are separate records, joined by “and”; a condition that tells them apart may be missing. Equal entries are not always repeated. Where two headings read alike, the source gives them in different places.

Experiments:
CYP3A4 mRNA [1] = test: Concentration-dependent CYP3A4 mRNA induction in HepatoCells; details: for induction response: readout not specified; for Emax / EC50: CYP3A4 mRNA fold increase, NI = no induction observed at tested concentration; for Emax: 3 consecutive days treatment, quinidine: only observed maximum fold induction; for RIS Based on mRNA: RIS = (Emax × Cmax,ub)/(EC50 + Cmax,ub); for EC50: human, nominal concentrations
Experimental: (§1) Cryopreserved HepatoCells were thawed quickly in a 37°C water bath and transferred to Corning Culture Medium for HepatoCells supplemented with 10% fetal bovine serum and Pen/Strep (plating medium). After the cryo-freezing media was removed by centrifugation at 150g for 10 minutes, the cell pellet was resuspended in plating media and cell count was performed with trypan blue. Cells were then seeded in a Corning BioCoat Collagen I–coated plate (500,000 cells/well in 24-well plate or 80,000 cells/well in 96-well plate), and plates were incubated in a 37°C incubator with 5% CO2. […] Cells were then returned to the incubator for overnight culture.
(§2) Stock solutions of test compounds were prepared by dissolving each compound in DMSO and serially diluting the solutions in DMSO. Final working solutions were freshly prepared daily by diluting the 1000× stock solutions in culture medium. Three lots of HepatoCells culture were treated with eight concentrations of test compounds. Both enzymatic activity (testosterone 6β hydroxylase activity) and mRNA expression were measured as endpoints using LC-MS/MS and real-time reverse-transcription polymerase chain reaction, respectively.
(§3) Only curve fitting with correlation coefficient (R^2) > 0.85 is accepted. At high concentrations for some compounds, if toxicity or insolubility becomes obvious, such data are excluded from curve fitting.

CYP3A4 [2] = details: cited from earlier work
CYP3A4 [3] = details: for RIS Based on Enzyme Activity: RIS = (Emax × Cmax,ub)/(EC50 + Cmax,ub)
PXR = tested on: PXR; parameters: method as in Luo et al. (2002); details: probenecid concentration up to 50 μM; ref Luo et al. (2002); cited from earlier work
CYP3A4 [4] = tested on: CYP3A4
Source text: The resulting fitting equation was used to calculate predicted in vivo AUC change for each compound. […] Prediction accuracy using HepatoCells was also compared with prediction accuracy using primary human hepatocytes.

CYP3A4 [5] = tested on: CYP3A4; parameters: method as in Luo et al. (2002); details: probenecid concentration up to 20 μM; ref Luo et al. (2002); cited from earlier work
[6] = parameters: method as in Zhang et al., 2014; details: from the literature; ref Zhang et al., 2014; cited from earlier work
CYP3A4 mRNA [7] = details: human
Experimental: as §1, §2, §3

human CAR [8] = molecular target: T1, human CAR (Homo sapiens, UniProt Q14994); test: Ad-EYFP-hCAR nuclear translocation in primary human hepatocytes; assay type: cell-based; details: phenobarbital treatment
T1 construct: expressed in transfected cells; host or cells: primary human hepatocytes (Corning Gentest inventory), adenoviral transduction
T1 sequence (Q14994 1-352): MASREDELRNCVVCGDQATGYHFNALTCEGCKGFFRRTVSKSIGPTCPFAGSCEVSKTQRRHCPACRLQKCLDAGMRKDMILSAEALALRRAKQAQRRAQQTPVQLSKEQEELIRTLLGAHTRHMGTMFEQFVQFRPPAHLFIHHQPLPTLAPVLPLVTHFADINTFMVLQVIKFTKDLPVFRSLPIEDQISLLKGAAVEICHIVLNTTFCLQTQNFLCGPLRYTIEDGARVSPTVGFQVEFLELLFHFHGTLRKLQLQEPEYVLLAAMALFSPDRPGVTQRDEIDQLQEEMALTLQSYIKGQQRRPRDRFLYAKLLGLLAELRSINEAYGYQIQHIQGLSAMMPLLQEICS

human CAR [9] = molecular target: T1, human CAR; test: Ad-EYFP-hCAR nuclear translocation in HepatoCells; assay type: cell-based; details: 1 mM phenobarbital for 12 hours
Experimental: Previous studies have used adenoviral-enhanced yellow fluorescent protein-tagged-human CAR (Ad-EYFP-hCAR) as a tool to visualize nuclear translocation of hCAR from cytoplasm in primary human hepatocytes upon exposure to phenobarbital ([Li et al., 2009]). […] The same Ad-EYFP-hCAR fusion protein model system was used to study CAR nuclear translocation in HepatoCells. A 3-day culture of HepatoCells was transduced with Ad-EYFP-hCAR for 24 hours. Infected HepatoCells were then treated with 1 mM phenobarbital for 12 hours.

CYP2B6 [10] = test: CYP2B6 induction response to prototypical inducer, enzyme activity, HepatoCells; details: human, probe bupropion 250 µM
Experimental: as §1

CYP2B6 [11] = test: CYP2B6 induction response to prototypical inducer, enzyme activity, primary human hepatocytes; details: cryopreserved primary human hepatocytes, probe bupropion 250 µM
CYP3A4 mRNA [12] = test: in vitro; details: human
Experimental: as §1, §2, §3

[13] = Lot 2B HepatoCells, RIS calibration curve
[14] = Lot 3A HepatoCells, RIS calibration curve
[15] = Lot 3B HepatoCells, RIS calibration curve

SMILES: CCCN(CCC)S(=O)(=O)c1ccc(C(=O)O)cc1 [Probenecid]
- Emax, mRNA expression (all lots) (CYP3A4 mRNA [1]; HepatoCells): more than 20 fold
- induction response (CYP3A4 mRNA [1]; HepatoCells, probenecid at 0.1–11 μM, significant = >twofold): did not exhibit significant induction response
- induction response (CYP3A4 mRNA [1]; HepatoCells, probenecid concentration higher than 33 μM): strong induction
- Emax (CYP3A4 mRNA [1]; Lot 2B HepatoCells): 25 Fold
- RIS Based on mRNA (CYP3A4 mRNA [1]; Lot 2B): 2.8
- Emax (CYP3A4 mRNA [1]; Lot 3A HepatoCells): 26 Fold
- RIS Based on mRNA (CYP3A4 mRNA [1]; Lot 3A): 3.2
- Emax (CYP3A4 mRNA [1]; Lot 3B HepatoCells): 22 Fold
- RIS Based on mRNA (CYP3A4 mRNA [1]; Lot 3B): 2.4
- EC50 (CYP3A4 mRNA [1]; EC50, Lot 2B HepatoCells): 187 µM
- EC50 (CYP3A4 mRNA [1]; EC50, Lot 3A HepatoCells): 176 µM
- EC50 (CYP3A4 mRNA [1]; EC50, Lot 3B HepatoCells): 195 µM
- RIS Based on mRNA, Mean (CYP3A4 mRNA [1]; mean of lots 2B, 3A, 3B): 2.8
- Observed % AUC Change (CYP3A4 [2]; clinical DDI, decrease in AUC of victim drug (midazolam or nonmidazolam), ref Zhang et al., 2014): 20%
- Emax, enzyme activity (all lots) (CYP3A4 [3]; HepatoCells): 5.9- to 11.9 fold
- RIS Based on Enzyme Activity (CYP3A4 [3]; Lot 2B): 1.5
- RIS Based on Enzyme Activity (CYP3A4 [3]; Lot 3A): 1.0
- RIS Based on Enzyme Activity (CYP3A4 [3]; Lot 3B): 0.8
- RIS Based on Enzyme Activity, Mean (CYP3A4 [3]; mean of lots 2B, 3A, 3B): 1.1
- activation of PXR (PXR): no activation of PXR
- Predicted % AUC Change Based on Activity (CYP3A4 [4]; [13]): 96%
- Predicted % AUC Change Based on mRNA (CYP3A4 [4]; [13]): 98%
- Predicted % AUC Change Based on Activity (CYP3A4 [4]; [14]): 94%
- Predicted % AUC Change Based on mRNA (CYP3A4 [4]; [14]): 98%
- Predicted % AUC Change Based on Activity (CYP3A4 [4]; [15]): 83%
- Predicted % AUC Change Based on mRNA (CYP3A4 [4]; [15]): 95%
- induction of CYP3A4 transcript or enzyme activity (CYP3A4 [5]): no activation of PXR or induction of CYP3A4 transcript or enzyme activity
- unbound Cmax [6]: 28 µM

SMILES: CCC1(c2ccccc2)C(=O)NC(=O)NC1=O [Phenobarbital]
- RIS Based on mRNA, Mean (CYP3A4 mRNA [7]): 4.3
- EYFP-hCAR localisation after treatment (human CAR [8]): relocates to the cell nuclei
- EYFP-hCAR localisation after treatment (human CAR [9]): relocates to the cell nuclei
- fold induction at 72 h, 1 mM (CYP2B6 [10]): 5
- Observed % AUC Change (CYP3A4 [2]; human, in vivo): 61%
- fold induction at 72 h, 1 mM (CYP2B6 [11]): 7.8
- RIS Based on Enzyme Activity, Mean (CYP3A4 [3]; human): 3.7
- Predicted % AUC Change Based on Activity (CYP3A4 [4]): 96% and 98%
- Predicted % AUC Change Based on mRNA (CYP3A4 [4]): 98% and 95%
- Predicted AUC change using HepatoCells (range of lots) (CYP3A4 [4]): 95–98%
- EC50 (CYP3A4 mRNA [12]): 775 µM
